# Source: ChEMBL document CHEMBL5247596, “SAR studies toward discovery of emvododstat (PTC299), a potent dihydroorotate dehydrogenase (DHODH) inhibitor” (Eur J Med Chem, 2022)
# Assays:
# MOLM-13 = experiment: Cytotoxicity against human MOLM-13 cells assessed as reduction of cell viability incubated for 3 days by CellTiter-Glo assay; format: functional, cell-based; conditions: MOLM-13, 72 h; for CC50: time 3 day
# [1] = Metabolic stability in mouse liver microsomes assessed as intrinsic clearance at 1 uM incubated upto 60 mins in presence of NADP by LC-MS analysis; format: ADME, Microsome; conditions: read-out: CLH
# [2] = AUC([…]) in mouse at 10 mg/kg, po administered via gavage measured upto 24 hrs by LC/MS-MS analysis; format: ADME, organism-based; parameters: dose 10 mg/kg, time < 24 hrs, route po; conditions: in vivo
# HT-1080 [3] = experiment: Antitumor activity against human HT-1080 cells xenografted in mouse assessed as tumor growth inhibition at 10 mg/kg, po bid measured for 21 days relative to control; format: functional; conditions: HT-1080, 504 h, time 21 day, read-out: TGI
# HT-1080 [4] = experiment: Antitumor activity against human HT-1080 cells xenografted in mouse assessed as tumor growth inhibition at 2 mg/kg, po bid measured for 21 days relative to control; format: functional; conditions: HT-1080, 504 h, time 21 day, read-out: TGI
# HT-1080 [5] = experiment: Antitumor activity against human HT-1080 cells xenografted in mouse assessed as tumor growth inhibition at 50 mg/kg, po bid measured for 14 days relative to control; format: functional; conditions: HT-1080, 336 h, time 14 day, read-out: TGI
# HT-1080 [6] = experiment: Antitumor activity against human HT-1080 cells xenografted in mouse assessed as tumor growth inhibition at 10 mg/kg, po bid measured for 14 days relative to control; format: functional; conditions: HT-1080, 336 h, time 14 day, read-out: TGI
# [7] = biological target: Dihydroorotate dehydrogenase (quinone), mitochondrial (Homo sapiens, UniProt Q02127); experiment: Inhibition of DHODH in human HeLa cells assessed as reduction in hypoxia-induced VEGF expression incubated for 48 hrs by ELISA assay; format: cell-based
# Sequence of Dihydroorotate dehydrogenase (quinone), mitochondrial (Q02127 whole entry): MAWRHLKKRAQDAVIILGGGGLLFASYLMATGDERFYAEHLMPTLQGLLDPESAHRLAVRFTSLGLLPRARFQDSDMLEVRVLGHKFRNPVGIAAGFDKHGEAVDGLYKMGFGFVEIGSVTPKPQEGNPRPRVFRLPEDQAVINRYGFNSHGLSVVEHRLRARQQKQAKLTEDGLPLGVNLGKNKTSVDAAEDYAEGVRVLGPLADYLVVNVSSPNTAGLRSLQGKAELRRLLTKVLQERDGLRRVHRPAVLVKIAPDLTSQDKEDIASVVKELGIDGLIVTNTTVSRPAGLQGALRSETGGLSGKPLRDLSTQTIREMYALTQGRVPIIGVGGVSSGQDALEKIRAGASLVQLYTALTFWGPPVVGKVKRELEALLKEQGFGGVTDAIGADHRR
# [8] = Toxicity in CHO cells assessed as chromosomal aberration; format: cell-based, Cricetulus griseus; conditions: chinese hamster
# [9] = Oral bioavailability in Beagle dog at 3 mg/kg by LC-MS/MS analysis; format: ADME, organism-based, Canis lupus familiaris; conditions: in vivo
# [10] = Oral bioavailability in Sprague-Dawley rat at 3 mg/kg by LC-MS/MS analysis; format: ADME, organism-based; conditions: in vivo
# [11] = biological target: Voltage-gated inwardly rectifying potassium channel KCNH2 (Homo sapiens, UniProt Q12809); experiment: Inhibition of hERG (unknown origin); format: toxicity
# Sequence of Voltage-gated inwardly rectifying potassium channel KCNH2 (Q12809 whole entry): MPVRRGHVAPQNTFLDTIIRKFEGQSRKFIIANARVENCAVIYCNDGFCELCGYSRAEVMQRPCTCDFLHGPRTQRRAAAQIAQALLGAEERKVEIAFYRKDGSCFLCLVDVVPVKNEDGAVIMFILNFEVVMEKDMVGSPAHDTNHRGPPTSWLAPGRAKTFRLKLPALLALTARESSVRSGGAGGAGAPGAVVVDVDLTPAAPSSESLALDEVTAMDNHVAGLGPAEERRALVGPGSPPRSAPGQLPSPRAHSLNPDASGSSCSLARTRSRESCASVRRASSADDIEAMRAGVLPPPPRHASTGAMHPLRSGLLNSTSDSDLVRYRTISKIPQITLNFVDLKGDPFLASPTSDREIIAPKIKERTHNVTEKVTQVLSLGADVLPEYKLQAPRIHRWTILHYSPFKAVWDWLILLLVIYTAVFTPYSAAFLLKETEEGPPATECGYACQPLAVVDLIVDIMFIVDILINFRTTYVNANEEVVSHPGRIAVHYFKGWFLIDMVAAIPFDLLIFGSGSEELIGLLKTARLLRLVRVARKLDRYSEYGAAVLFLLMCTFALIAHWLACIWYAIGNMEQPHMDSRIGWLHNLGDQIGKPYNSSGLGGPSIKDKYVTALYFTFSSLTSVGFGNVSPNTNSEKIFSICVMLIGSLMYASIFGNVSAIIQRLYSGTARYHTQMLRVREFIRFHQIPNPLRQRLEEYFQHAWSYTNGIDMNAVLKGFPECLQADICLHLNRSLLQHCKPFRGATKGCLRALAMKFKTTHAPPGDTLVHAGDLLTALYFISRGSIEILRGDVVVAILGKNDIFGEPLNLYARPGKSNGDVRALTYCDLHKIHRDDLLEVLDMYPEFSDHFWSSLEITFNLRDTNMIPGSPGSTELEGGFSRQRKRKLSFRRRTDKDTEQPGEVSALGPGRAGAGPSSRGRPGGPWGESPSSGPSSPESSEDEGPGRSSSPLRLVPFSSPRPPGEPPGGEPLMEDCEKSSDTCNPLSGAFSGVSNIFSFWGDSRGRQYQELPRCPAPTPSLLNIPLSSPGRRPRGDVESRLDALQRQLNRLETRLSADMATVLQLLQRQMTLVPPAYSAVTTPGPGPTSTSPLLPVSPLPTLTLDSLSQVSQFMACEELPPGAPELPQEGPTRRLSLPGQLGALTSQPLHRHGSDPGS
# [12] = Genotoxicity in Salmonella typhimurium by Ames test; format: toxicity; conditions: salmonella enterica subsp. enterica serovar typhimurium
# [13] = Toxicity in po dosed rat bone marrow by micronucleus assay; format: organism-based; conditions: in vivo
SMILES,CC50 (MOLM-13),other results
COc1ccc(C2c3[nH]c4ccc(Cl)cc4c3CCN2C(=O)Oc2ccc(Cl)cc2)cc1 (stereo not given),12 nM,CLint scaled at 1 µM [1]: < 5 mL/min/kg; AUC(0-t) at 24 h [2]: 8600 ng·h/mL; inhibition in vivo at 10 mg/kg (HT-1080 [3]): 82%; inhibition in vivo at 2 mg/kg (HT-1080 [4]): 63%
CCN1CCc2c([nH]c3ccc(Cl)cc23)C1c1ccc(OC)cc1 (stereo not given),278 nM,
COc1ccc(C2c3[nH]c4ccc(Cl)cc4c3CCN2C(=O)Oc2cncnc2)cc1 (stereo not given),74 nM,
COc1ccc(C2c3[nH]c4ccc(Cl)cc4c3CCN2C(C)=O)cc1 (stereo not given),274 nM,
CCOC(=O)N1CCc2c([nH]c3ccc(Cl)cc23)C1c1ccccc1 (stereo not given),52 nM,CLint scaled at 1 µM [1]: 92 mL/min/kg
CCOC(=O)N1CCc2c([nH]c3ccc(Cl)cc23)C1C (stereo not given),> 1000 nM,
COc1ccc(C2c3[nH]c4ccc(Cl)cc4c3CCN2C(=O)OC2CCCC2)cc1 (stereo not given),36 nM,
COc1ccc(C2c3[nH]c4ccc(Cl)cc4c3CCN2C(=O)OC2CCC2)cc1 (stereo not given),28 nM,
CCOC(=O)N1CCc2c([nH]c3ccc(Cl)cc23)C1c1ccccc1F (stereo not given),36 nM,
CCOC(=O)N1CCc2c([nH]c3cc(F)ccc23)C1c1ccc(OC)cc1 (stereo not given),> 1000 nM,
COc1ccc(C2c3[nH]c4cc(Cl)ccc4c3CCN2C(=O)Oc2ccc(Cl)cc2)cc1 (stereo not given),306 nM,
CCNC(=S)N1CCc2c([nH]c3ccc(Cl)cc23)C1c1ccc(OC)cc1 (stereo not given),477 nM,
CCOC(=O)N1CCc2c([nH]c3ccc(Cl)cc23)C1c1ccc(OC)cc1 (stereo not given),25 nM,CLint scaled at 1 µM [1]: 190 mL/min/kg; AUC(0-t) at 24 h [2]: 580 ng·h/mL; inhibition in vivo at 50 mg/kg (HT-1080 [5]): 52%; inhibition in vivo at 10 mg/kg (HT-1080 [6]): 2%
COc1ccc([C@H]2c3[nH]c4ccc(Br)cc4c3C[C@@H]3C(=O)N(C4CCCCC4)C(=S)N23)cc1,,EC50 [7]: 3 nM
CCNC(=O)N1CCc2c([nH]c3ccc(Cl)cc23)C1c1ccc(OC)cc1 (stereo not given),929 nM,
COc1ccc(C2c3[nH]c4ccc(Cl)cc4c3CCN2C(=O)Oc2cccnc2)cc1 (stereo not given),117 nM,
COc1ccc(C2c3[nH]c4ccc(Cl)cc4c3CCN2C(=O)Oc2ccccc2C)cc1 (stereo not given),225 nM,
CCOC(=O)N1CCc2c([nH]c3c(C)cccc23)C1c1ccc(OC)cc1 (stereo not given),> 1000 nM,
COc1ccc(C2NCCc3c2[nH]c2ccc(Cl)cc32)cc1 (stereo not given),1200 nM,
CCOC(=O)N1CCc2c([nH]c3ccc(Cl)cc23)C1c1ccccc1OC (stereo not given),192 nM,
CCOC(=O)N1CCc2c([nH]c3ccc(Cl)cc23)C1c1ccccc1Cl (stereo not given),384 nM,
CCOC(=O)N1CCc2c([nH]c3ccc(Cl)cc23)C1C1CCCCC1 (stereo not given),119 nM,
CCCOC(=O)N1CCc2c([nH]c3ccc(Cl)cc23)C1c1ccc(OC)cc1 (stereo not given),23 nM,

SMILES,CC50 (MOLM-13),other results
COc1ccc(C2c3[nH]c4ccc(Cl)cc4c3CCN2C(=O)Oc2ccccc2)cc1 (stereo not given),34 nM,CLint scaled at 1 µM [1]: 22 mL/min/kg
COc1ccc(C2NCCc3c2[nH]c2ccc(Br)cc32)cc1 (stereo not given),920 nM,
COc1ccc(C2c3c(c4cc(Cl)ccc4n3C)CCN2C(=O)Oc2ccc(Cl)cc2)cc1 (stereo not given),,EC50 (MOLM-13): > 1000 nM
COc1ccc(C2c3[nH]c4ccc(Cl)cc4c3CCN2c2ccccc2)cc1 (stereo not given),133 nM,
COc1ccc(C2c3[nH]c4ccc(Cl)cc4c3CCN2C(=O)OCCF)cc1 (stereo not given),37 nM,CLint scaled at 1 µM [1]: 227 mL/min/kg
CCOC(=O)N1CCc2c([nH]c3c(F)cccc23)C1c1ccc(OC)cc1 (stereo not given),> 1000 nM,
COc1ccc(C2c3[nH]c4ccc(Cl)cc4c3CCN2Cc2ccccc2)cc1 (stereo not given),265 nM,
COc1ccc(C2c3[nH]c4ccc(Cl)cc4c3CCN2C(=O)Oc2ccccc2F)cc1 (stereo not given),59 nM,
CCOC(=O)N1CCc2c([nH]c3ccc(F)cc23)C1c1ccc(OC)cc1 (stereo not given),433 nM,
COc1ccc(C2c3[nH]c4ccc(Cl)cc4c3CCN2C(=O)Oc2cccc(Cl)c2)cc1 (stereo not given),13 nM,
COCCOC(=O)N1CCc2c([nH]c3ccc(Cl)cc23)C1c1ccc(OC)cc1 (stereo not given),81 nM,CLint scaled at 1 µM [1]: 365 mL/min/kg
COc1ccc(C2c3[nH]c4cccc(Cl)c4c3CCN2C(=O)Oc2ccc(Cl)cc2)cc1 (stereo not given),389 nM,
CCOC(=O)N1CCc2c([nH]c3ccc(C#N)cc23)C1c1ccc(OC)cc1 (stereo not given),284 nM,
CCOC(=O)N1CCc2c([nH]c3ccc(Cl)cc23)C1c1ccc(F)cc1 (stereo not given),36 nM,AUC(0-t) at 24 h [2]: 200 ng·h/mL
COC(=O)N1CCc2c([nH]c3ccc(Cl)cc23)C1c1ccc(OC)cc1 (stereo not given),40 nM,CLint scaled at 1 µM [1]: 174 mL/min/kg
COc1ccc(C2c3[nH]c4ccc(Cl)cc4c3CCN2C(=O)OC(C)(C)C)cc1 (stereo not given),39 nM,
CCOC(=O)N1CCc2c([nH]c3ccc(Cl)cc23)C1Cc1ccccc1 (stereo not given),> 1000 nM,
COc1ccc(OC(=O)N2CCc3c([nH]c4ccc(Cl)cc34)C2c2ccc(OC)cc2)cc1 (stereo not given),73 nM,
COc1ccc(C2c3[nH]c4ccc(Cl)cc4c3CCN2C=O)cc1 (stereo not given),325 nM,
CCOC(=O)N1CCc2c([nH]c3ccc(Cl)cc23)C1c1ccc(Cl)cc1 (stereo not given),19 nM,CLint scaled at 1 µM [1]: 221 mL/min/kg; AUC(0-t) at 24 h [2]: 550 ng·h/mL
COc1ccc(C2c3[nH]c4ccc(Cl)cc4c3CCN2C(=O)Oc2ccc(C)cc2)cc1 (stereo not given),31 nM,CLint scaled at 1 µM [1]: < 5 mL/min/kg; AUC(0-t) at 24 h [2]: 2200 ng·h/mL
COc1ccc(C2c3[nH]c4ccc(Cl)cc4c3CCN2C)cc1 (stereo not given),337 nM,
COc1ccc([C@H]2c3[nH]c4ccc(Cl)cc4c3C[C@@H]3C(=O)N(C4CCCCC4)C(=S)N23)cc1,,EC50 [7]: 1 nM

SMILES,CC50 (MOLM-13),other results
COc1ccc([C@H]2c3[nH]c4ccccc4c3C[C@@H]3C(=O)N(C4CCCCC4)C(=S)N23)cc1,,EC50 [7]: 680 nM
COc1ccc(C2c3[nH]c4ccc(Cl)cc4c3CCN2C(=O)OC2CC2)cc1 (stereo not given),37 nM,
CCOC(=O)N1CCc2c([nH]c3ccc(Br)cc23)C1c1ccc(OC)cc1 (stereo not given),11 nM,
O=C(Oc1ccc(Cl)cc1)N1CCn2c(cc3ccc(Cl)cc32)C1c1ccccc1 (stereo not given),,EC50 (MOLM-13): > 1000 nM
COc1ccc(C2c3[nH]c4ccc(C)cc4c3CCN2C(=O)Oc2ccc(Cl)cc2)cc1 (stereo not given),62 nM,
CCOC(=O)N1CCc2c([nH]c3cccc(F)c23)C1c1ccc(OC)cc1 (stereo not given),> 1000 nM,
CCOC(=O)N1CCc2c([nH]c3ccc(Cl)cc23)C1c1cccc(OC)c1 (stereo not given),48 nM,
COc1ccc(C2c3[nH]c4ccc(Cl)cc4c3CCN2C(=O)Oc2cccc(C)c2)cc1 (stereo not given),77 nM,
CCOC(=O)N1CCc2c([nH]c3ccc(Cl)cc23)C1c1cccc(F)c1 (stereo not given),53 nM,CLint scaled at 1 µM [1]: 151 mL/min/kg
COc1ccc(C2NCCc3c2[nH]c2ccccc32)cc1 (stereo not given),> 30000 nM,
CCOC(=O)N1CCc2c([nH]c3ccccc23)C1c1ccc(OC)cc1 (stereo not given),> 1000 nM,
CCOC(=O)N1CCc2c([nH]c3ccc(OC)cc23)C1c1ccc(OC)cc1 (stereo not given),215 nM,
CCN(CC)C(=O)N1CCc2c([nH]c3ccc(Cl)cc23)C1c1ccc(OC)cc1 (stereo not given),> 1000 nM,
COc1ccc(C2c3[nH]c4ccc(Cl)cc4c3CCN2S(=O)(=O)c2ccccc2)cc1 (stereo not given),> 1000 nM,
COc1ccc(C2c3[nH]c4ccc(Cl)cc4c3CCN2C(=O)Oc2ccccc2Cl)cc1 (stereo not given),126 nM,
COc1ccc(C2c3[nH]c4ccc(Cl)cc4c3CCN2C(=O)OC2CCCCC2)cc1 (stereo not given),41 nM,
COc1ccc(C2c3[nH]c4ccc(Cl)cc4c3CCN2C(=O)OC(C)C)cc1 (stereo not given),37 nM,
COc1ccc(C2c3[nH]c4ccc(Cl)cc4c3CCN2C(=O)Oc2ccc(F)cc2)cc1 (stereo not given),26 nM,
Brc1ccc2[nH]c3c(c2c1)CCCC3n1cccc1 (stereo not given),,EC50 [7]: 13 nM
CCOC(=O)N1CCc2c([nH]c3ccc(Cl)cc23)C1c1cccc(Cl)c1 (stereo not given),34 nM,CLint scaled at 1 µM [1]: 143 mL/min/kg
COc1ccc([C@@H]2c3[nH]c4ccc(Cl)cc4c3CCN2C(=O)Oc2ccc(Cl)cc2)cc1,> 1000 nM,
COc1ccc([C@H]2c3[nH]c4ccc(Cl)cc4c3CCN2C(=O)Oc2ccc(Cl)cc2)cc1 [EMVODODSTAT],6 nM,Activity [8]: Non-Toxic; bioavailability [9]: 8%; bioavailability [10]: 119%; inhibition (INH) [11]: Not Active; Activity [12]: Non-Toxic; Activity [13]: Non-Toxic
COc1ccc(C2c3[nH]c4ccc(Cl)cc4c3CCN2C(=O)Oc2cccc(F)c2)cc1 (stereo not given),27 nM,
